In patent US12110286B2, “Benzimidazolone derived inhibitors of BCL6” (Cancer Research Technology Limited, priority 2017, dated 2024):

Assays:
endogenous BCL6 protein = endogenous BCL6 protein (Homo sapiens (Human), UniProt P41182); assay: Immunofluorescence-based BCL6 degradation assay; type: cell-based; conditions: 2 hours with compound
Procedure: Immunofluorescence-Based BCL6 Degradation Assay
DC50 values (compound concentration at which 50% of endogenous BCL6 protein is degraded) were determined in SUDHL-4 cells (American Type Culture Collection) in an immunofluorescence-based assay using an InCell2200 high content imaging system (GE Healthcare). […] After 20 hours cell culture at 37° C./CO2 incubator, compounds were dispensed in the cell culture plate using ECHO550 acoustic dispenser (Labcyte, Inc.), as 8 point-concentration response (ranging from 5 nM to 10 μM) in 0.67% final DMSO concentration. Cells were incubated with compound for 2 hours at 37° C./CO2 incubator followed by fixation in 4.5% formaldehyde (37% formaldehyde solution, Sigma catalogue F8775) at room temperature for 15 min. […] Blocking and cell permeabilisation were performed by incubating the fixed cells for 1 hour at room temperature in 1×TBS, 5% BSA, 1% Triton X100, followed by three washes on PW384 plate washer. Primary and secondary antibodies were prepared in 1×TBS, 1% BSA, 0.2% Triton X100. […] After incubation in each antibody, cells were washes four times in 1×TBS-0.05% tween on PW384 plate washer. Cells were finally incubated for 60 min with nuclear staining RedDot2 dye (Biotium) at 0.5× the stock concentration in 1×TBS. BCL6 expression in the absence or presence of compound was detected on InCell2200 with 20× objective and quantified on InCell Analyser 3.7.2 workstation (GE Healthcare). The % response at each concentration was calculated by normalising BCL6 expression in the presence of compound to the appropriate high (DMSO) and low (DMSO with 7 μM CCT369260) controls.

SU-DHL-4 cells = assay: 14-day cell proliferation assay (CellTiter Glo); type: cell-based; conditions: Homo sapiens, SU-DHL-4, 336 h; SU-DHL4 cells, 14 days
Procedure: 14-Day Cell Proliferation Assay
SU-DHL-4 cells were seeded in 96-well culture plates at a density of 2000 cells/well in RPMI-1640 medium (Sigma-Aldrich) supplemented with 10% FBS (Gibco). Compounds were initially dispensed into 96-well U-bottom plates using an Echo 550 acoustic dispenser (Labcyte Inc.), then diluted in RPMI-1640 medium and transferred onto the cells. Cells were treated with 8 compound concentrations in duplicate, ranging from 1 nM to 10 μM, in a final DMSO concentration of 0.1% and final volume of 100 μl. Cells were incubated with compound for 14 days, with medium changes at days 3, 7 and 10 carried out as follows: fresh 96-well cell culture plates were prepared containing 100 μl medium plus compound at the assay concentrations (white plates were used on day 10 to optimise luminescence measurement). Assay plates containing cells were vortexed to mix and cell density in one control well was counted using a Coulter Z2 cell counter (Beckman Coulter). The volume of medium containing 2000 cells in the control well was calculated and this volume of cells was transferred from every well of the assay plates to the corresponding well of the fresh plates containing compound. After 14 days, CellTiter Glo reagent (Promega) was added to the medium in each well of the assay plate at a ratio of 1:2, mixed on a plate shaker, then incubated at room temperature for 10 minutes. Luminescence was measured using an Envision plate reader (Perkin Elmer) and the relative luminescence at each compound concentration, compared to DMSO alone, was calculated. G150 were determined using a 4-parameter curve fit in Dotmatics (Bishops Stortford, UK).

[1] = target: Trx-6×His-BCL6 (human BCL6 BTB domain covering amino-acid sequence 5-129) (Homo sapiens (Human), UniProt P41182); assay: HTRF in vitro assay (BCL6 / BCOR-AF633 peptide); type: binding; conditions: further generated data, 1 nM Trx-6×His-BCL6, 300 nM BCOR-AF633 peptide, 0.5 nM anti-6×His-Terbium cryptate; for IC50: read-out: HTRF pIC50 (converted)
Procedure: The % inhibition at each concentration was calculated by normalising FRET ratio to the appropriate high (DMSO with all reagents) and low (DMSO without BCL6) controls.

Row | Structure (SMILES) | Degradation assay in SU-DHL4 cells (pDC50) (endogenous BCL6 protein) | GI50 (SU-DHL-4 cells) [nM] | IC50 [1] [nM] | HTRF pIC50 [1]
1 | C[C@@H]1CN(c2ncc(Cl)c(Nc3ccc4c(c3)n(CCC(C)(C)O)c(=O)n4CCC(C)(C)O)n2)C[C@H](C)C1(F)F [Example 35j, 5-((5-chloro-2-((3R,5S)-4,4-difluoro-3,5-dimethylpiperidin-1-yl)pyrimidin-4-yl)amino)-1,3-bis(3-hydroxy-3-methylbutyl)-1,3-dihydro-2H-benzo[d]imidazol-2-one] | 6.43 | 760 | 1740 | 
2 | C[C@@H]1CN(c2ncc(Cl)c(Nc3ccc4c(c3)n(CCC(C)(C)O)c(=O)n4C)n2)C[C@H](C)C1(F)F [Example 20a, 5-((5-chloro-2-((3R,5S)-4,4-difluoro-3,5-dimethylpiperidin-1-yl)pyrimidin-4-yl)amino)-3-(3-hydroxy-3-methylbutyl)-1-methyl-1,3-dihydro-2H-benzo[d]imidazol-2-one] |  | 70 |  | 
3 | CC1CN(c2ncc(Cl)c(Nc3ccc4c(c3)n(CCC(C)(C)O)c(=O)n4C)n2)CCC1(F)F (stereo not drawn) [Example 35c, 5-((5-chloro-2-(4,4-difluoro-3-methylpiperidin-1-yl)pyrimidin-4-yl)amino)-3-(3-hydroxy-3-methylbutyl)-1-methyl-1,3-dihydro-2H-benzo[d]imidazol-2-one] | 6.75 | 440 |  | 6.53
4 | COCC1CN(c2ncc(Cl)c(Nc3ccc4c(c3)n(CCC(C)(C)O)c(=O)n4C)n2)CCC1(F)F (stereo not drawn) [Example 35b, 5-((5-chloro-2-(4,4-difluoro-3-(methoxymethyl)piperidin-1-yl)pyrimidin-4-yl)amino)-3-(3-hydroxy-3-methylbutyl)-1-methyl-1,3-dihydro-2H-benzo[d]imidazol-2-one] | 6.35 | 1840 |  | 6.70
5 | CC1CCCN(c2ncc(Cl)c(Nc3ccc4c(c3)n(CCC(C)(C)O)c(=O)n4C)n2)C1.O=CO (stereo not drawn) [Example 20g] | 6.29 | 750 |  | 6.07
6 | Cn1c(=O)n(CCC(C)(C)O)c2cc(Nc3nc(N4CCC(F)(F)CC4)ncc3Cl)ccc21 [Example 35d, 5-((5-chloro-2-(4,4-difluoropiperidin-1-yl)pyrimidin-4-yl)amino)-3-(3-hydroxy-3-methylbutyl)-1-methyl-1,3-dihydro-2H-benzo[d]imidazol-2-one] | 6.59 | 1130 |  | 6.48
7 | Cn1c(=O)n(CCC(C)(C)O)c2cc(Nc3nc(N4CCCC(C(F)(F)F)C4)ncc3Cl)ccc21 (stereo not drawn) [Example 20h] | 6.30 |  |  | 6.49
8 | C[C@@H]1C[C@H](C)CN(c2ncc(Cl)c(Nc3ccc4c(c3)n(CCC(C)(C)O)c(=O)n4C)n2)C1 [Example 20e] |  | 350 |  | 
9 | Cn1c(=O)n(CCC(C)(C)O)c2cc(Nc3cc(N4CCC(F)(F)CC4)ncc3Cl)ccc21 [Example 36a, 5-((5-chloro-2-(4,4-difluoropiperidin-1-yl)pyridin-4-yl)amino)-3-(3-hydroxy-3-methylbutyl)-1-methyl-1,3-dihydro-2H-benzo[d]imidazol-2-one] | 6.35 |  | 813 | 
